Results: patent publication US20120115944A1, “USE OF CARNITINE AND DIHYDROQUERCITIN TO POSITIVELY INFLUENCE THE NATURAL PIGMENTATION PROCESS” (Henkel AG & Co., KGaA, priority 2009, published 2012)

Key:
Type in all cases: cell-based
[1] = system: KGF; test: Relative excretion of KGF (ELISA) in organotypic hair follicle cell cultures; details: 72 hours, untreated = 100
From the text: (§1) L-Carnitine and L-carnitine tartrate were investigated with regard to their effects on ATP synthesis the excretion of the growth factors HGF (hepatocyte growth factors) and KGF (keratinocyte growth factor). ATP (adenosine triphosphate) is the universal storage form for chemical energy in cells. Release of the phosphate groups yields ADP and Pi (inorganic phosphate). This reaction is highly exergonic, i.e. energy is released. ATP is produced in the cellular oxidative breakdown of fats, carbohydrates, and proteins. It serves as an energy supply for biochemical syntheses (including melanin synthesis), for transport operations (active transport), and for mechanical work. These processes are endergonic, i.e. they proceed only when energy is delivered. HGF and KGF are important growth factors with which the dermal papilla controls hair growth and the hair cycle, to which pigment production in the hair follicle is linked in particular fashion. Melanin formation takes place exclusively in the anagen phase of the hair cycle. […]
(§2) The excretion of HGF and KGF can be quantified with the aid of a commercially obtainable ELISA kit. For this, organotypic hair follicle cell cultures made up of dermal papilla cells, hair follicle melanocytes, and outer root sheath keratinocytes are incubated for 72 hours with carnitine tartrate, and the concentration of HGF and KGF in the medium is determined.

[2] = system: organotypic cell cultures made up of three-dimensionally cultivated dermal papilla cells; test: ATP content in hair follicle cell cultures (ATPlite-M assay); details: 24 hours, untreated = 100
From the text: L-Carnitine and L-carnitine tartrate were investigated with regard to their effects on ATP synthesis the excretion of the growth factors HGF (hepatocyte growth factors) and KGF (keratinocyte growth factor). ATP (adenosine triphosphate) is the universal storage form for chemical energy in cells. Release of the phosphate groups yields ADP and Pi (inorganic phosphate). This reaction is highly exergonic, i.e. energy is released. ATP is produced in the cellular oxidative breakdown of fats, carbohydrates, and proteins. It serves as an energy supply for biochemical syntheses (including melanin synthesis), for transport operations (active transport), and for mechanical work. These processes are endergonic, i.e. they proceed only when energy is delivered. HGF and KGF are important growth factors with which the dermal papilla controls hair growth and the hair cycle, to which pigment production in the hair follicle is linked in particular fashion. Melanin formation takes place exclusively in the anagen phase of the hair cycle. In addition, a variety of publications have discussed the effect of HGF on DNA synthesis, on growth, and on the differentiation of melanocytes.
The ATP determination was performed using the ATPlite™-M assay (Packard). The test principle of this assay is based on the fact that the luciferase of Photinus pyralis catalyzes a reaction in which D-luciferin is converted into oxyluciferin in the presence of ATP. This reaction causes the emission of green light, which can be measured with a luminometer. The emitted bioluminescent light is proportional to the quantity of ATP present.
The ATP activity determination was performed in organotypic cell cultures made up of three-dimensionally cultivated dermal papilla cells. The treatment with carnitine and carnitine tartrate occurred over 24 hours, against an untreated control.

[3] = system: HGF; test: Relative excretion of HGF (ELISA) in organotypic hair follicle cell cultures; details: 72 hours, untreated = 100
From the text: as §1, §2

[4] = system: gp100; test: Differential gene expression by quantitative RT-PCR in organotypic hair follicle cell cultures: gp100; details: 48 h incubation, untreated control = 1
From the text: Gp100 is a protein that occurs in the membrane of melanosomes and stabilizes it. Because more melanin is produced in the cells after the application of substances that positively influence melanogenesis, an increase also occurs in the number of melanosomes required for transport. A substance that induces the gene expression of gp100 is therefore a pigmentation-stimulating active substance. A determination of the extent of the change in gene expression after an application of such substances onto suitable cells/cell systems/tissue cultures can provide information regarding the efficacy of the active substance. Differential gene expression was determined by means of quantitative RT-PCR. After three-dimensional organotypic hair follicle cell cultures from dermal papilla cells had been produced on microcarriers, the latter were incubated for 48 h with dihydroquercetin in two different concentrations. In order to carry out the PCR, firstly the RNA was isolated from the organotypic cell cultures using the RNeasy Mini Kit of the Qiagen company, and it was transcribed into cDNA by reverse transcription. In the context of the subsequent PCR reaction, which was carried out using gene-specific primers for the respective genes and which serves to amplify the desired gene segments, formation of the PCR products was detected online by way of a fluorescence signal, which is proportional to the quantity of PCR product formed. The stronger the expression of a specific gene, the greater the quantity of PCR product formed, and the higher the fluorescence signal. The quantify the gene expression, the untreated control was set to equal 1, and expression of the genes to be determined was referred to it (X-times expression). […] Values that are greater than or equal to 1.5 times the expression, or less than or equal to 0.7 times the expression, of the untreated control are classified as tending toward differential expression.

[5] = system: three-dimensional organotypic hair follicle cell cultures made up of dermal papilla cells, hair follicle melanocytes, and outer root sheath keratinocytes; test: Melanin content in hair follicle equivalents
From the text: Melanin is a dye that is produced and stored in the melanosomes of melanocytes. Melanin gives hair its actual color, the color being produced by a mixture of two types of melanin, eumelanin and pheomelanin. Melanogenesis is a complicated synthesis process regulated in many ways. Firstly, tyrosine is converted by the enzyme tyrosinase into L-dihydroxyphenylalanine (L-DOPA), and then via multiple intermediate steps into the various melanin pigments. An active substance that positively influences melanogenesis and results in an elevated melanin content in the hair follicle melanocytes is particularly suitable for influencing the natural pigmentation process of skin and/or skin appendages, preventing hair graying, and/or stimulating pigmentation.
To investigate the melanin content, three-dimensional organotypic hair follicle cell cultures made up of dermal papilla cells, hair follicle melanocytes, and outer root sheath keratinocytes were treated for 7 days with dihydroquercetin (10 μM and 100 μM). Untreated cell cultures served as controls. After 4 and 7 days the hair follicle equivalents were homogenized and the melanin was extracted for 45 minutes using NaOH (1M)+10% DMSO at 100° C. Aliquots of the samples were then transferred into a 96-well plate, and extinction at 492 nm was measured. The increase in melanin content from day 0 to day 7 was evaluated by referring all the values to the untreated control at day 7 (=100%).

[6] = system: MCR1 (melanocortin receptor 1); test: Differential gene expression by quantitative RT-PCR in organotypic hair follicle cell cultures: MCR1; details: 48 h incubation, untreated control = 1
From the text: Ligands participating in melanogenesis, such as SCF or alpha-MSH (melanocyte stimulating hormone alpha), bind to a variety of receptors by means of which the corresponding signal is delivered into the interior of the cell. The receptor for SCF is ckit, the receptor for alpha-MSH is MCR-1 (melanocortin receptor 1). Those substances that bring about a change in the expression of MCR-1 and/or ckit can influence melanogenesis. In the case of an induction (upregulation or stimulation) of the gene expression of the corresponding receptors, a stimulation of melanogenesis is to be assumed. A determination of the extent of the change in gene expression after an application of such substances onto suitable cells/cell systems/tissue cultures can provide information regarding the efficacy of the active substance. Differential gene expression was determined by means of quantitative RT-PCR. After three-dimensional organotypic hair follicle cell cultures from dermal papilla cells had been produced on microcarriers, the latter were incubated for 48 h with dihydroquercetin in two different concentrations. In order to carry out the PCR, firstly the RNA was isolated from the organotypic cell cultures using the RNeasy Mini Kit of the Qiagen company, and it was transcribed into cDNA by reverse transcription. In the context of the subsequent PCR reaction, which was carried out using gene-specific primers for the respective genes and which serves to amplify the desired gene segments, formation of the PCR products was detected online by way of a fluorescence signal, which is proportional to the quantity of PCR product formed. The stronger the expression of a specific gene, the greater the quantity of PCR product formed, and the higher the fluorescence signal. The quantify the gene expression, the untreated control was set to equal 1, and expression of the genes to be determined was referred to it (X-times expression). […] Values that are greater than or equal to 1.5 times the expression, or less than or equal to 0.7 times the expression, of the untreated control are classified as tending toward differential expression.

[7] = system: ckit; test: Differential gene expression by quantitative RT-PCR in organotypic hair follicle cell cultures: ckit; details: 48 h incubation, untreated control = 1
From the text: Ligands participating in melanogenesis, such as SCF or alpha-MSH (melanocyte stimulating hormone alpha), bind to a variety of receptors by means of which the corresponding signal is delivered into the interior of the cell. The receptor for SCF is ckit, the receptor for alpha-MSH is MCR-1 (melanocortin receptor 1). Those substances that bring about a change in the expression of MCR-1 and/or ckit can influence melanogenesis. In the case of an induction (upregulation or stimulation) of the gene expression of the corresponding receptors, a stimulation of melanogenesis is to be assumed. A determination of the extent of the change in gene expression after an application of such substances onto suitable cells/cell systems/tissue cultures can provide information regarding the efficacy of the active substance. Differential gene expression was determined by means of quantitative RT-PCR. After three-dimensional organotypic hair follicle cell cultures from dermal papilla cells had been produced on microcarriers, the latter were incubated for 48 h with dihydroquercetin in two different concentrations. In order to carry out the PCR, firstly the RNA was isolated from the organotypic cell cultures using the RNeasy Mini Kit of the Qiagen company, and it was transcribed into cDNA by reverse transcription. In the context of the subsequent PCR reaction, which was carried out using gene-specific primers for the respective genes and which serves to amplify the desired gene segments, formation of the PCR products was detected online by way of a fluorescence signal, which is proportional to the quantity of PCR product formed. The stronger the expression of a specific gene, the greater the quantity of PCR product formed, and the higher the fluorescence signal. The quantify the gene expression, the untreated control was set to equal 1, and expression of the genes to be determined was referred to it (X-times expression). […]

[8] = 100 μM, listed as dihydroquercetin

With `C[N+](C)(C)CC(O)CC(=O)[O-]` (stereo not shown) [Carnitine, 3-hydroxy-4-(trimethylammonium)butyric acid betaine] as the compound, how does the “KGF (%) M, relative excretion” value ([1]; 0.01%) read?
Its value is 120%.

And the “ATP (%) M” value ([2]; 0.05%)?
Its value is 212%.

What about the “ATP (%) M” value ([2]; 0.05%, listed as carnitine) of the same compound?
The value was “increase the ATP content in the treated cultures significantly”.

And the “ATP (%) M” value ([2]; 0.1%)?
The value was 160%.

And the “ATP (%) M” value ([2]; 0.1%, listed as carnitine)?
Its value is “increase the ATP content in the treated cultures significantly”.

What about the “HGF (%) M, relative excretion” value ([3]; 0.01%) of the same compound?
Its value is 105%.

Which results are given for `C[N+](C)(C)C[C@H](O)CC(=O)[O-].O=C(O)C(O)C(O)C(=O)O` [Carnitine tartrate, L-carnitine tartrate]?
KGF (%) M, relative excretion ([1]; 0.005%): 123%; ATP (%) M ([2]; 0.01%, listed as carnitine tartrate, tartrate): increase the ATP content in the treated cultures significantly; ATP (%) M ([2]; 0.01%, tartrate): 195%; ATP (%) M ([2]; 0.05%): 102%; HGF (%) M, relative excretion ([3]; 0.005%): 141%

`O=C1c2c(O)cc(O)cc2OC(c2ccc(O)c(O)c2)C1O` (stereo not shown) [Dihydroquercetin, 3,3′,4′,5,7-pentahydroxyflavanone] was tested. Which “gp100 expression M (X-times expression)” value ([4]; 10 μM) did it give?
The value was 0.89.

What about the “gp100 expression M (X-times expression)” value ([4]; 100 μM) of the same compound?
The value was 3.48.

What about the “gp100 expression M (X-times expression)” value [4, 8] of the same compound?
The value was “induced”.

What about the “Melanin content (%) M” value ([5]; 10 μM, d 4) of the same compound?
The value was 100%.

And the “Melanin content (%) M” value ([5]; 10 μM, d 7, untreated d 7 = 181)?
The value was 254%.

And the “Melanin content (%) M” value ([5]; 100 μM, d 4)?
Its value is 100%.

What about the “Melanin content (%) M” value ([5]; 100 μM, d 7, untreated d 7 = 181) of the same compound?
Its value is 161%.

What about the “MCR1 expression M (X-times expression)” value ([6]; 10 μM) of the same compound?
Its value is 2.56.

And the “MCR1 expression M (X-times expression)” value ([6]; 10 μM, listed as dihydroquercetin)?
The value was “significantly differentially expressed”.

And the “MCR1 expression M (X-times expression)” value ([6]; 100 μM)?
The value was 5.17.

And the “MCR1 expression M (X-times expression)” value [6, 8]?
Its value is “induced”.

What about the “ckit expression M (X-times expression)” value ([7]; 10 μM) of the same compound?
Its value is 1.32.

What about the “ckit expression M (X-times expression)” value ([7]; 100 μM) of the same compound?
Its value is 3.55.

And the “ckit expression M (X-times expression)” value [7, 8]?
Its value is “induced”.
